The text below walks through data of US11331364B2, “Use for JNK inhibitor molecules for treatment of various diseases” (Xigen Inflammation Ltd., priority 2014, dated 2022).

Square brackets hold non-standard residues; d marks the D form. Peptide text beside a SMILES is read from it.

One experiment has as its target T1, hJNK1 (Homo sapiens, UniProt P45983).
T1 construct: His; purchased Upstate 14-327
Nature of the experiment: hJNK1 | IC50. To be noted: read-out: hJNK1 | IC50. From the text:
(§1) Table printed on a drawing sheet, Fig. 4
Head of the field: hJNK1 | IC50
(§2) The patent's description of the figure: FIG. 4: Table illustrating the inhibitory efficacy of several JNK inhibitors according to the present invention, which are fusion proteins of a JNK inhibitory (poly-)peptide sequence and a transporter sequence. Given are the IC50 values in the nM range, the respective standard error of the mean (SEM) and the number of experiments performed (n).
(§3) First copying reader's note: The sheet prints no unit for IC50 (the description says nM range); decimal commas are used, except for three IC50 cells printed with a point (3820.81, 5340.33, 8130.86).
Where the first naming reader finds the target: head: hJNK1 | IC50

Another experiment deals with hJNK2 (Homo sapiens, UniProt P45984). The experiment is described as follows: hJNK2 | IC50. To be noted: read-out: hJNK2 | IC50.
Excerpt: as §1
Head of the field: hJNK2 | IC50
as §2, §3
Where the first naming reader finds the target: head: hJNK2 | IC50

In a further experiment the target is hJNK3 (Homo sapiens, UniProt P53779). Nature of the experiment: hJNK3 | IC50. The conditions noted are these: read-out: hJNK3 | IC50.
Excerpt: as §1
Head of the field: hJNK3 | IC50
as §2, §3
Where the first naming reader finds the target: head: hJNK3 | IC50

T1 sequence (P45983 whole entry, looked up): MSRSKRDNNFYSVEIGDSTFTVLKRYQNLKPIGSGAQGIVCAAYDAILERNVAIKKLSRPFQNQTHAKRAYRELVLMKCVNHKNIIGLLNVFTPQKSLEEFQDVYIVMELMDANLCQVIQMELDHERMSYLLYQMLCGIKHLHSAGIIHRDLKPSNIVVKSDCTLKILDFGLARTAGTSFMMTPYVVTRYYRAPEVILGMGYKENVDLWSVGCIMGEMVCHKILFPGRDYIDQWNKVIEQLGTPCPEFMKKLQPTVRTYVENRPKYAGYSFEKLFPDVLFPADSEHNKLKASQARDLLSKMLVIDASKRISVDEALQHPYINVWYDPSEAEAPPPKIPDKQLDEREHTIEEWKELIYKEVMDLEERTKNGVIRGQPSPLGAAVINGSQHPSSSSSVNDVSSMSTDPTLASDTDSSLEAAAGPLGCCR
Chain of hJNK2 (P45984 whole entry, looked up): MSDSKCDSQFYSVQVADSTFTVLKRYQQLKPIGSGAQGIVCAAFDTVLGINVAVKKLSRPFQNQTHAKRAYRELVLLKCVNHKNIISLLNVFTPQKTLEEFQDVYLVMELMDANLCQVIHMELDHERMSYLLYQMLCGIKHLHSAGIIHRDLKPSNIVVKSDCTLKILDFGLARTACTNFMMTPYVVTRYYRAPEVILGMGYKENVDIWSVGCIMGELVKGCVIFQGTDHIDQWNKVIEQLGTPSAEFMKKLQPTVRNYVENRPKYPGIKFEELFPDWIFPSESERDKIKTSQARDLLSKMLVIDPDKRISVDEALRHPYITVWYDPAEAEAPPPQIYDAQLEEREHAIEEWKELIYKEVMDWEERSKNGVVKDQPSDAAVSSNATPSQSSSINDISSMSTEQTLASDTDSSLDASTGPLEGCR
Chain of hJNK3 (P53779 whole entry, looked up): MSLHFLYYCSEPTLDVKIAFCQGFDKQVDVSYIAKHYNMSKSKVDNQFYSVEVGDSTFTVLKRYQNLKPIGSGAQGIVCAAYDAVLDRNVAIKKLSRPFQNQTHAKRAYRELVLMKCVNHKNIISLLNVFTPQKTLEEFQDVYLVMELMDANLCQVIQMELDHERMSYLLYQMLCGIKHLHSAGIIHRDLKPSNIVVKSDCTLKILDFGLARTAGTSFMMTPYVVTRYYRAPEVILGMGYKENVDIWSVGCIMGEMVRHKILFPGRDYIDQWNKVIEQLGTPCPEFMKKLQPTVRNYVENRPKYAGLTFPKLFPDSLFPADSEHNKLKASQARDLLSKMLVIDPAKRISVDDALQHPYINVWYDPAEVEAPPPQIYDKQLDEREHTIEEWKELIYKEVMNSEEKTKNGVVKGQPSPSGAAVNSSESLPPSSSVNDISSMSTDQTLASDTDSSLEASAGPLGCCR

Consider `CC(C)C[C@@H](NC(=O)[C@@H](Cc1ccccc1)NC(=O)[C@H]1CCCN1C(=O)[C@@H](CCC(N)=O)NC(=O)[C@H](NC(=O)[C@H]1CCCN1C(=O)[C@@H](CCCNC(=N)N)NC(=O)[C@@H](CO)NC(=O)[C@@H](CCC(N)=O)NC(=O)[C@H](N)CC(=O)O)C(C)C)C(=O)N[C@H](CC(N)=O)C(=O)N[C@H](CC(C)C)C(=O)N[C@@H](C(=O)N[C@@H](C(=O)N1CCC[C@@H]1C(=O)N[C@H](CCCNC(=N)N)C(=O)N[C@H](CCCCN)C(=O)N1CCC[C@@H]1C(=O)N[C@H](CCCNC(=N)N)C(=O)N1CCC[C@@H]1C(=O)N1CCC[C@@H]1C(=O)N[C@H](CCCNC(=N)N)C(=O)N[C@H](CCCNC(=N)N)C(=O)N[C@H](CCCNC(=N)N)C(=O)N[C@H](CCC(N)=O)C(=O)N[C@H](CCCNC(=N)N)C(=O)N[C@H](CCCNC(=N)N)C(=O)N[C@H](CCCCN)C(=O)N[C@H](CCCCN)C(=O)N[C@H](CCCNC(=N)N)C(=O)NCC(N)=O)[C@H](C)O)[C@H](C)O` [SEQ ID NO: 197, dqsrpvqpflnlttprkprpprrrqrrkkrg] (H-[dD][dQ][dS][dR][dP][dV][dQ][dP][dF][dL][dN][dL][dT][dT][dP][dR][dK][dP][dR][dP][dP][dR][dR][dR][dQ][dR][dR][dK][dK][dR]G-NH2), for which the IC50 amounted to 24400 nM at hJNK1, 802 nM at hJNK2 and 1290 nM at hJNK3.

For the compound `CC(C)C[C@H](NC(=O)[C@H](CC(N)=O)NC(=O)[C@H](CC(C)C)NC(=O)[C@@H](NC(=O)[C@@H](C)NC(=O)[C@@H]1CCCN1C(=O)[C@H](CCCNC(=N)N)NC(=O)[C@@H](CCCNC(=N)N)NC(=O)[C@H](CCCNC(=N)N)NC(=O)[C@H](CCCNC(=N)N)NC(=O)[C@H](CCC(N)=O)NC(=O)[C@@H](CCCNC(=N)N)NC(=O)[C@H](CCCNC(=N)N)NC(=O)[C@H](CCCCN)NC(=O)[C@H](CCCCN)NC(=O)[C@H](N)CCCNC(=N)N)[C@@H](C)O)C(=O)N[C@H](Cc1ccccc1)C(N)=O` [SEQ ID NO: 182, rKKRrQRRrRPaTLNLf] (H-[dR]KKR[dR]QRR[dR]RP[dA]TLNL[dF]-NH2), the values for the half-maximal inhibitory concentration (IC50) on hJNK1, at hJNK2 and at hJNK3 were 1680 nM, 168 nM and 59.4 nM, respectively.

Turning to `CC(C)C[C@H](NC(=O)[C@H](C)NC(=O)[C@H](CCCCN)NC(=O)[C@H](CCCNC(=N)N)NC(=O)[C@H](CCCCN)NC(=O)CNC(=O)[C@@H](CCCNC(=N)N)NC(=O)[C@H](CCCNC(=N)N)NC(=O)[C@H](CCCNC(=N)N)NC(=O)[C@H](CCC(N)=O)NC(=O)[C@@H](CCCNC(=N)N)NC(=O)[C@H](CCCNC(=N)N)NC(=O)[C@H](CCCCN)NC(=O)[C@H](CCCCN)NC(=O)[C@H](N)CCCNC(=N)N)C(=O)N[C@@H](CCCCN)C(=O)N[C@@H](CC(C)C)C(=O)N[C@H](Cc1ccccc1)C(N)=O` [SEQ ID NO: 188] (H-[dR]KKR[dR]QRR[dR]GKRKALKL[dF]-NH2), the half-maximal inhibitory concentration (IC50) is 1420 nM on hJNK1, 98.1 nM on hJNK2 and 36.1 nM on hJNK3.

Turning to `CC(C)C[C@H](NC(=O)[C@H](C)NC(=O)[C@H](CCCCN)NC(=O)[C@H](CCCNC(=N)N)NC(=O)[C@@H](CCCNC(=N)N)NC(=O)[C@H](CCCNC(=N)N)NC(=O)[C@H](CCCNC(=N)N)NC(=O)[C@H](CCC(N)=O)NC(=O)[C@@H](CCCNC(=N)N)NC(=O)[C@H](CCCNC(=N)N)NC(=O)[C@H](CCCCN)NC(=O)[C@H](CCCCN)NC(=O)[C@H](N)CCCNC(=N)N)C(=O)N[C@H](CCCNC(=N)N)C(=O)N[C@@H](CC(C)C)C(=O)N[C@H](Cc1ccccc1)C(N)=O` [SEQ ID NO: 190, rKKRrQRRrRKALrLf] (H-[dR]KKR[dR]QRR[dR]RKAL[dR]L[dF]-NH2), the half-inhibitory concentration (IC50) at hJNK1 came to 8970 nM; at hJNK2 it was 148 nM; at hJNK3 it was 159 nM.

For the compound `CC(C)C[C@H](NC(=O)[C@H](CC(N)=O)NC(=O)[C@H](CC(C)C)NC(=O)[C@@H](NC(=O)[C@@H](CCC(N)=O)NC(=O)[C@@H]1CCCN1C(=O)[C@H](CCCNC(=N)N)NC(=O)[C@@H](CCCCN)NC(=O)[C@@H]1CCCN1C(=O)[C@H](CCCNC(=N)N)NC(=O)[C@@H](CCCNC(=N)N)NC(=O)[C@H](CCCNC(=N)N)NC(=O)[C@H](CCCNC(=N)N)NC(=O)[C@H](CCC(N)=O)NC(=O)[C@@H](CCCNC(=N)N)NC(=O)[C@H](CCCNC(=N)N)NC(=O)[C@H](CCCCN)NC(=O)[C@H](CCCCN)NC(=O)[C@H](N)CCCNC(=N)N)[C@@H](C)O)C(=O)N[C@H](Cc1ccccc1)C(N)=O` [SEQ ID NO: 186, rKKRrQRRrRPkRPqTLNLf] (H-[dR]KKR[dR]QRR[dR]RP[dK]RP[dQ]TLNL[dF]-NH2), the figures for the IC50 on hJNK1, on hJNK2 and at hJNK3 were 1020 nM, 52.6 nM and 44.2 nM, respectively.

Take `CC(C)C[C@H](NC(=O)[C@H](CC(N)=O)NC(=O)[C@H](CC(C)C)NC(=O)[C@@H](NC(=O)[C@@H](CCCCN)NC(=O)[C@@H]1CCCN1C(=O)[C@H](CCCNC(=N)N)NC(=O)[C@@H](CCCCN)NC(=O)[C@@H]1CCCN1C(=O)[C@H](CCCNC(=N)N)NC(=O)[C@@H](CCCNC(=N)N)NC(=O)[C@H](CCCNC(=N)N)NC(=O)[C@H](CCCNC(=N)N)NC(=O)[C@H](CCC(N)=O)NC(=O)[C@@H](CCCNC(=N)N)NC(=O)[C@H](CCCNC(=N)N)NC(=O)[C@H](CCCCN)NC(=O)[C@H](CCCCN)NC(=O)[C@H](N)CCCNC(=N)N)[C@@H](C)O)C(=O)N[C@H](Cc1ccccc1)C(N)=O` [SEQ ID NO: 187, rKKRrQRRrRPkRPkTLNLf] (H-[dR]KKR[dR]QRR[dR]RP[dK]RP[dK]TLNL[dF]-NH2): the results for the IC50 on hJNK1, at hJNK2 and on hJNK3 were 594 nM, 37.9 nM and 25.4 nM, respectively.

Turning to `CC(C)C[C@H](NC(=O)[C@H](CC(=O)O)NC(=O)[C@@H](NC(=O)[C@@H]1CCCN1C(=O)[C@H](CCCNC(=N)N)NC(=O)[C@@H](CCCNC(=N)N)NC(=O)[C@H](CCCNC(=N)N)NC(=O)[C@H](CCC(N)=O)NC(=O)[C@@H](CCCNC(=N)N)NC(=O)[C@H](CCCNC(=N)N)NC(=O)[C@H](CCCCN)NC(=O)[C@H](CCCCN)NC(=O)[C@H](N)CCCNC(=N)N)[C@@H](C)O)C(=O)N[C@H](CCCNC(=N)N)C(=O)N[C@@H](CC(C)C)C(=O)N[C@H](Cc1c[nH]c2ccccc12)C(N)=O` [SEQ ID NO: 181, rKKRrQRrRPTDLrLw] (H-[dR]KKR[dR]QR[dR]RPTDL[dR]L[dW]-NH2), the IC50 on hJNK1 worked out at 294 nM; at hJNK2 it was 160 nM; at hJNK3, 47.6 nM.

A word on the IC50: it is the point on the concentration scale where inhibition reaches its midpoint.
